Data on one compound can be found in US8802723B2, “Metabolic syndrome-improving agent and medicine, supplement, functional food and food additive containing the same” (ARKRAY, Inc., priority 2005, dated 2014).

The target of one assay is T1, human PPARγ (Homo sapiens, UniProt P37231).
T1 construct: expressed in transfected cells; host or cells: CV-1 cells (African green monkey kidney)
T1 sequence (P37231 204-505): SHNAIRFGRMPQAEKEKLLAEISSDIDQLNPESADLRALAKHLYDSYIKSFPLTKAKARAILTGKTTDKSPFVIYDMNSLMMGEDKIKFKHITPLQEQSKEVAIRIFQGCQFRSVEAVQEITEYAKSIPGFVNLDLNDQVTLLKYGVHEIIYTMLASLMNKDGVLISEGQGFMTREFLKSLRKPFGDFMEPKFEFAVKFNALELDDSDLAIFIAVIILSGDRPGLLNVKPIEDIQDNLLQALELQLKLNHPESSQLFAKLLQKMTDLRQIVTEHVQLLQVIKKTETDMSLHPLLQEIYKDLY
The assay can be described thus: PPARγ ligand activity, GAL4-hPPARγ luciferase reporter assay in CV-1 cells. The format is cell-based. The settings on record: for PPARγ ligand activity: 24 h, relative to non-treatment control (DMSO) = 100, average ± standard error. The procedure:
(§1) CV-1 cells (cultured cells derived from kidneys of male African green monkeys) were implanted on 24-well culture plates so as to be […] and cultured at 37° C. in 5% CO2 for 24 hours. As a medium, DMEM (Dulbecco's Modified Eagle Medium; manufactured by GIBCO) containing 10% FBS (fetal bovine serum) and a 10 mg/mL penicillin streptomycin solution was used. Using the Lipofectamine system (trade name; manufactured by Invitrogen Corporation), pM-hPPARγ and p4× UASg-tk-luc were transfected. The above-noted pM-hPPARγ was a chimeric protein-expression plasmid binding GAL4 gene (amino acid sequence 1-147) and human PPARγ ligand-binding site gene (amino acid sequence 204-505), whereas the above-noted p4× UASg-tk-luc was a reporter plasmid containing four copies of a responsive element (UAS) of GAL 4 upstream of a luciferase gene. About 24 hours after the transfection, samples of aurapten at respective concentrations (0.1, 1.0, 10, 50 and 100 μM) were added to the above-described media, followed by 24 hour incubation. The above-noted samples were prepared by dissolving aurapten in dimethyl sulfoxide (DMSO). Instead of the aurapten, DMSO was added to non-treated control media. After the incubation, measurement was made using a Dual-Luciferase Reporter Gene Assay system (trade name; manufactured by Promega Corporation).
(§2) Similarly to the measurement group, as a control group, pM (a plasmid from which PPARγ ligand-binding site gene was removed) was used for measurement instead of pM-hPPARγ. For each sample, the ratio between average luminescence intensities of the measurement group and the control group (n=4) (measurement group/control group) was calculated, and an activity relative to the non-treatment control was determined as the PPARγ ligand activity of the sample.

A further assay deals with T2, PPARα (Homo sapiens, UniProt Q07869).
T2 construct: GAL4 (pM vector); expressed in transfected cells; host or cells: CV-1 cells (African green monkey kidney)
T2 sequence (Q07869 1-468): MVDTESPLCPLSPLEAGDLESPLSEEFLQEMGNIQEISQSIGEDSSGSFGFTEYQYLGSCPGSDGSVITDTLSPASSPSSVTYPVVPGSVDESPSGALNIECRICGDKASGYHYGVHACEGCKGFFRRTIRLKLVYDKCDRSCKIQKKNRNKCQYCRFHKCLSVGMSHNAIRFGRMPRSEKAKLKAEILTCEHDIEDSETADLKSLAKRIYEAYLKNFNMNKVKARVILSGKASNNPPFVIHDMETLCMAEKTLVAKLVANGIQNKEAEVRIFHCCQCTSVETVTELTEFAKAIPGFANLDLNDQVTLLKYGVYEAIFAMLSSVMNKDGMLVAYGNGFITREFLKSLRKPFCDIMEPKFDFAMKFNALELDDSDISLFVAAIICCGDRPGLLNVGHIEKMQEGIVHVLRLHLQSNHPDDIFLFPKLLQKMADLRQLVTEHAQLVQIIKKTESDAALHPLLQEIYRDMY
The assay can be described thus: PPARα ligand activity, GAL4-hPPARα luciferase reporter assay in CV-1 cells. The format is cell-based. The settings on record: for PPARα ligand activity: 24 h, relative to non-treatment control (DMSO) = 100, average ± standard error. How it is done:
as §1, §2
The PPARα ligand activity of aurapten was measured similarly to Example 1 except that pM-hPPARα was used instead of pM-hPPARγ and the aurapten concentrations were set to 0.1, 1.0, 10, 50 and 80 μM.

For the compound `CC(C)=CCC/C(C)=C/COc1ccc2ccc(=O)oc2c1` [Aurapten, aurapten], at human PPARγ (0.1-100 μM, increased along with the concentration), the “effect on PPARγ activity (in words)” value is “improved the activity of PPARγ”. The PPARγ ligand activity is 128 ± 8.5 at human PPARγ (aurapten 0.1 μM); 113 ± 6.9 on human PPARγ (aurapten 1.0 μM); 146 ± 17.0 on human PPARγ (aurapten 10 μM); 245 ± 56.1 at human PPARγ (aurapten 50 μM); 641 ± 84.2 at human PPARγ (aurapten 100 μM). Further, on PPARα (0.1-80 μM, increased in keeping with the concentration), the “effect on PPARα activity (in words)” value is “improved the activity of PPARα”. For the same compound, the PPARα ligand activity is reported as 234 ± 39.4 on PPARα (aurapten 0.1 μM); 139 ± 38.3 on PPARα (aurapten 1.0 μM); 302 ± 98.2 at PPARα (aurapten 10 μM); 409 ± 27.8 at PPARα (aurapten 50 μM); 1052 ± 232.9 on PPARα (aurapten 80 μM).
